Data published in ChEMBL document CHEMBL1131831, “A rapid method to identify exo-protease inhibitors” (Bioorg Med Chem Lett, 1999).

Experiments:
Trypsin = Trypsin (Sus scrofa, UniProt P00761); experiment: Inhibition constant (Ki) against trypsin enzyme for the conversion of water-soluble compound to fluorescent oil-soluble compound
[1] = target: Leukocyte elastase (Homo sapiens); experiment: Inhibition constant (Ki) against human leukocyte elastase.
[2] = target: Leukocyte elastase (Homo sapiens); experiment: Inhibition constant (Ki) when mixed with p-nitroanilide against human leukocyte elastase for the conversion of water-soluble compound to fluorescent oil-soluble compound

Sequence of Trypsin (P00761 whole entry): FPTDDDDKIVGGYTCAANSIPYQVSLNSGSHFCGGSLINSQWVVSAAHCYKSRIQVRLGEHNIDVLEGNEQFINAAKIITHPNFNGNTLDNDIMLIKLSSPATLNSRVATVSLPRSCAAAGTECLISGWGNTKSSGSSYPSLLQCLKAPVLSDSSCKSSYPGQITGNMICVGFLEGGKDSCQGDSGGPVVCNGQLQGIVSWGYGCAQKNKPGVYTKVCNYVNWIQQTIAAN

Ki (Trypsin)	Ki [1]	Ki [2]	Compound
~800 µM			O=C1C=CC(=O)N1c1ccccc1
	248 µM		CC(NC(=O)[C@H](C)NC(=O)c1cccc2c1Oc1c(C(=O)NC(C)C(=O)N[C@@H](C)C(=O)O)cccc1C2(C)C)C(=O)O (single isomer, unassigned)
	515 µM		CC(C)C(NC(=O)c1cccc2c1Oc1c(C(=O)N[C@H](C(=O)O)C(C)C)cccc1C2(C)C)C(=O)O (single isomer, unassigned)
	86 µM	0.128 µM	CC(NC(=O)[C@H](C)NC(=O)c1cccc2c1Oc1c(C(=O)NC(C(=O)O)C(C)C)cccc1C2(C)C)C(=O)O (single isomer, unassigned)
